Inconclusive results and toxic doses are left out. Cut-off read from the data, not from the text of the source: active = T/C of 150% or more; inactive = T/C below 125%.
System: L1210 leukemia ip in BDF1 mice, survival T/C
Test: NCI In Vivo Anticancer Drug Screen. Data for tumor model L1210 Leukemia (intraperitoneal) in B6D2F1 (BDF1) mice
Conditions: endpoint: mean survival time, higher = longer survival
Summary of the method: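 Each compound was tested against a transplantable tumor grown in mice. The endpoint was survival, with treated animals benchmarked against vehicle controls as a simple ratio.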

[1] = dose: 25.0 mg/kg/injection, schedule: Q01DX009 (ip), vehicle: saline
[2] = dose: 50.0 mg/kg/injection, schedule: Q01DX009 (ip), vehicle: saline
[3] = dose: 100.0 mg/kg/injection, schedule: Q01DX001 (ip), vehicle: saline
[4] = dose: 200.0 mg/kg/injection, schedule: Q01DX001 (ip), vehicle: saline
[5] = dose: 400.0 mg/kg/injection, schedule: Q01DX001 (ip), vehicle: saline

Measured: T/C

CC(C)[C@](O)(C(=O)OCC1=CC[N+]2([O-])CC[C@@H](O)[C@@H]12)[C@H](C)O (some centres undefined)
inactive: dose: 6.2 mg/kg/injection, schedule: Q01DX009 (ip), vehicle: water 96 % of control | dose: 8.0 mg/kg/injection, schedule: Q03HX024 (ip), vehicle: water 91 % of control | dose: 12.5 mg/kg/injection, schedule: Q01DX009 (ip), vehicle: water 96 % of control | dose: 16.0 mg/kg/injection, schedule: Q03HX008 (ip), vehicle: water 101 % of control | dose: 16.0 mg/kg/injection, schedule: Q03HX016 (ip), vehicle: water 101 % of control | dose: 16.0 mg/kg/injection, schedule: Q03HX024 (ip), vehicle: water 96 % of control | [1] 90 % of control | dose: 25.0 mg/kg/injection, schedule: Q01DX009 (ip), vehicle: water 98 % of control | dose: 32.0 mg/kg/injection, schedule: Q03HX008 (ip), vehicle: water 99 % of control | dose: 32.0 mg/kg/injection, schedule: Q03HX016 (ip), vehicle: water 94 % of control | dose: 32.0 mg/kg/injection, schedule: Q03HX024 (ip), vehicle: water 95 % of control | [2] 93 % of control | dose: 50.0 mg/kg/injection, schedule: Q01DX009 (ip), vehicle: water 123 % of control | dose: 64.0 mg/kg/injection, schedule: Q01DX009 (ip), vehicle: saline 99 % of control | dose: 64.0 mg/kg/injection, schedule: Q01DX009 (ip), vehicle: water 97 % of control | dose: 64.0 mg/kg/injection, schedule: Q03HX008 (ip), vehicle: water 97 % of control | dose: 64.0 mg/kg/injection, schedule: Q03HX016 (ip), vehicle: water 94 % of control | dose: 64.0 mg/kg/injection, schedule: Q03HX024 (ip), vehicle: water 99 % of control | dose: 64.0 mg/kg/injection, schedule: Q04DX003 (ip), vehicle: water 97 % of control | dose: 100.0 mg/kg/injection, schedule: Q01DX009 (ip), vehicle: saline 96 % of control | dose: 100.0 mg/kg/injection, schedule: Q01DX009 (ip), vehicle: water 110 % of control | dose: 100.0 mg/kg/injection, schedule: Q04DX002 (ip), vehicle: saline 104 % of control | dose: 128.0 mg/kg/injection, schedule: Q01DX001 (ip), vehicle: water 98 % of control | dose: 128.0 mg/kg/injection, schedule: Q01DX009 (ip), vehicle: saline 103 % of control | dose: 128.0 mg/kg/injection, schedule: Q01DX009 (ip), vehicle: water 108 % of control | dose: 128.0 mg/kg/injection, schedule: Q01DX009 (sc), vehicle: water 95 % of control | dose: 128.0 mg/kg/injection, schedule: Q03HX008 (ip), vehicle: water 101 % of control | dose: 128.0 mg/kg/injection, schedule: Q03HX016 (ip), vehicle: water 99 % of control | dose: 128.0 mg/kg/injection, schedule: Q03HX024 (ip), vehicle: water 110 % of control | dose: 128.0 mg/kg/injection, schedule: Q04DX003 (ip), vehicle: water 105 % of control | dose: 128.0 mg/kg/injection, schedule: Q08DX002 (ip), vehicle: water 95 % of control | dose: 200.0 mg/kg/injection, schedule: Q01DX009 (ip), vehicle: water 117 % of control | dose: 200.0 mg/kg/injection, schedule: Q04DX002 (ip), vehicle: saline 123 % of control | dose: 256.0 mg/kg/injection, schedule: Q01DX001 (ip), vehicle: water 99 % of control | dose: 256.0 mg/kg/injection, schedule: Q01DX009 (ip), vehicle: saline 101 % of control | dose: 256.0 mg/kg/injection, schedule: Q01DX009 (ip), vehicle: water 117 % of control | dose: 256.0 mg/kg/injection, schedule: Q01DX009 (oral), vehicle: water 103 % of control | dose: 256.0 mg/kg/injection, schedule: Q01DX009 (sc), vehicle: water 97 % of control | dose: 256.0 mg/kg/injection, schedule: Q03HX008 (ip), vehicle: water 94 % of control | dose: 256.0 mg/kg/injection, schedule: Q04DX003 (ip), vehicle: water 100 % of control | dose: 256.0 mg/kg/injection, schedule: Q08DX002 (ip), vehicle: water 101 % of control | dose: 400.0 mg/kg/injection, schedule: Q01DX009 (ip), vehicle: saline 98 % of control | dose: 400.0 mg/kg/injection, schedule: Q04DX002 (ip), vehicle: saline 120 % of control | dose: 512.0 mg/kg/injection, schedule: Q01DX001 (ip), vehicle: water 101 % of control | dose: 512.0 mg/kg/injection, schedule: Q01DX009 (ip), vehicle: water 105 % of control | dose: 512.0 mg/kg/injection, schedule: Q01DX009 (oral), vehicle: water 94 % of control | dose: 512.0 mg/kg/injection, schedule: Q01DX009 (sc), vehicle: water 104 % of control | dose: 512.0 mg/kg/injection, schedule: Q04DX003 (ip), vehicle: water 100 % of control | dose: 512.0 mg/kg/injection, schedule: Q08DX002 (ip), vehicle: water 110 % of control | dose: 800.0 mg/kg/injection, schedule: Q01DX009 (ip), vehicle: saline 111 % of control | dose: 1024.0 mg/kg/injection, schedule: Q01DX001 (ip), vehicle: water 111 % of control | dose: 1024.0 mg/kg/injection, schedule: Q01DX009 (ip), vehicle: saline 104 % of control | dose: 1024.0 mg/kg/injection, schedule: Q01DX009 (oral), vehicle: water 108 % of control | dose: 1024.0 mg/kg/injection, schedule: Q04DX003 (ip), vehicle: water 119 % of control | dose: 1024.0 mg/kg/injection, schedule: Q08DX002 (ip), vehicle: water 117 % of control

O=[N+]([O-])c1ccc(NN(c2ccccc2)c2ccccc2)c([N+](=O)[O-])c1
inactive: dose: 100.0 mg/kg/injection, schedule: Q04DX003 (ip), vehicle: Klucel (hydroxypropylcellulose) (HPC) 98 % of control | dose: 200.0 mg/kg/injection, schedule: Q04DX003 (ip), vehicle: Klucel (hydroxypropylcellulose) (HPC) 97 % of control | dose: 400.0 mg/kg/injection, schedule: Q04DX003 (ip), vehicle: Klucel (hydroxypropylcellulose) (HPC) 90 % of control

CC(C)(C)/C([O-])=N/[N+](C)(C)Cc1ccccc1
inactive: [3] 97 % of control | [4] 98 % of control | [5] 98 % of control

ClCc1c2ccccc2cc2ccccc12
inactive: dose: 6.25 mg/kg/injection, schedule: Q04DX002 (ip), vehicle: saline with Tween-80 101 % of control | dose: 12.5 mg/kg/injection, schedule: Q04DX002 (ip), vehicle: saline with Tween-80 101 % of control

O=C(N/N=C/c1ccco1)c1ccccc1O
inactive: dose: 50.0 mg/kg/injection, schedule: Q01DX009 (ip), vehicle: saline with Tween-80 108 % of control | dose: 100.0 mg/kg/injection, schedule: Q01DX009 (ip), vehicle: saline with Tween-80 102 % of control | dose: 200.0 mg/kg/injection, schedule: Q01DX009 (ip), vehicle: saline with Tween-80 97 % of control

O=C(Nc1ccc([N+](=O)[O-])cc1)Nc1ccc([N+](=O)[O-])c(C(F)(F)F)c1
inactive: dose: 12.5 mg/kg/injection, schedule: Q01DX009 (ip), vehicle: saline 87 % of control | dose: 15.0 mg/kg/injection, schedule: Q01DX015 (ip), vehicle: saline 97 % of control | [1] 90 % of control | dose: 25.0 mg/kg/injection, schedule: Q04DX003 (ip), vehicle: acetone 86 % of control | dose: 30.0 mg/kg/injection, schedule: Q01DX015 (ip), vehicle: saline 94 % of control | [2] 90 % of control | dose: 50.0 mg/kg/injection, schedule: Q04DX003 (ip), vehicle: acetone 88 % of control | dose: 60.0 mg/kg/injection, schedule: Q01DX015 (ip), vehicle: saline 92 % of control | dose: 75.0 mg/kg/injection, schedule: Q01DX009 (ip), vehicle: saline with Tween-80 102 % of control | [3] 94 % of control | dose: 115.0 mg/kg/injection, schedule: Q01DX009 (ip), vehicle: saline with Tween-80 100 % of control | dose: 120.0 mg/kg/injection, schedule: Q01DX015 (ip), vehicle: saline 90 % of control

O=C(Nc1ccc([N+](=O)[O-])cc1)c1ccc([N+](=O)[O-])cc1
inactive: dose: 100.0 mg/kg/injection, schedule: Q04DX003 (ip), vehicle: saline with Tween-80 94 % of control | dose: 200.0 mg/kg/injection, schedule: Q04DX003 (ip), vehicle: saline with Tween-80 94 % of control | dose: 400.0 mg/kg/injection, schedule: Q04DX003 (ip), vehicle: saline with Tween-80 89 % of control

COCc1ccc([N+](=O)[O-])o1
inactive: [3] 101 % of control | [4] 103 % of control | [5] 101 % of control

Reference: PubChem BioAssay AID248 (DTP/NCI, 2004)
